Paper PMC7139549, “TLD1433 Photosensitizer Inhibits Conjunctival Melanoma Cells in Zebrafish Ectopic and Orthotopic Tumour Models” (Cancers, 2020)
Where two headings read alike, the source gives them in different places.

Tested on: A431 epidermoid carcinoma cell line
Assay: SRB cell viability assay, A431
Assay type: cell-based, Human
Protocol: TLD1433 is known to generate reactive oxygen species (ROS) with high quantum efficacy in many cancer cell lines. However, there is no report of the in vitro toxicity of this compound in eye melanoma (UM) cell lines. We determined the cell viability of three conjunctival melanoma cell lines (CRMM1, CRMM2 and CM2005.1), and three uveal melanoma cell lines (OMM1, OMM2.5, MEL270) in the presence of TLD1433, both in the dark or under green light irradiation (21 mW/cm^2, 19 J/cm^2, 520 nm, 15 min), and compared this viability to epidermoid carcinoma A431 and cutaneous melanoma A375 cell lines under the same conditions. […] The phototoxicity index (PI), defined as the ratio of the dark EC50 to the light EC50, was also calculated and represents the amplification of TLD1433 activity with a light trigger. […]
Figure 2 Cell viability after TLD1433 treatment of eight tumour cell lines (CRMM1, CRMM2, CM2005.1, OMM1, OMM2.5, MEL270, A431, A375). […] The absorbance of Sulforhodamine B in solution was measured at 520 nm. […]
At day 0, cells were detached using 1mL of trypsin, resuspended in 4 mL of media and transferred to a 15 mL corning falcon tube. Cells were counted using trypan blue and BioRad® TC20™ automated cell counter (Figure 11). […] Next day, the dye was dissolved using Tri-base (0.25%) and absorbance of SRB at 510 nm was recorded from each well using a Tecan plate reader. […]

Cc1ccnc(-c2cc(C)ccn2)c1.Cc1ccnc(-c2cc(C)ccn2)c1.[Cl-].[Cl-].[Ru+2].c1csc(-c2ccc(-c3ccc(-c4nc5c6cccnc6c6ncccc6c5[nH]4)s3)s2)c1 [TLD1433]
EC50 (A431, dark, 24 h treatment, SRB, read-out: EC50, dark): > 5000 nM | EC50 (A431, green light 520 nm, 15 min, 21 mW/cm^2, 19 J.cm^−2, DLI 24 h, read-out: EC50,light): 49 nM
